From patent publication US11318116B2, “Stable amorphous form of sacubitril valsartan trisodium complex and processes for preparation thereof” (Laurus Labs Limited, priority 2016, dated 2022)

Assay: Stability study for amorphous trisodium sacubitril valsartan complex (HPLC purity and PXRD on storage)
Type: physicochemical
Text: In another embodiment, the present invention provides a method of packing amorphous form of sacubitril valsartan trisodium complex, comprising: placing amorphous form of sacubitril valsartan trisodium complex in LDPE bag under nitrogen atmosphere; placing the product containing Low-density polyethylene (LDPE) bag in a second LDPE bag under nitrogen atmosphere; keeping the silica gel packet between two LDPE bags and sealing; placing the second sealed bag in a triple laminated bag and sealing.
The X-Ray powder diffraction can be measured using PANalytical X'per^3pro X-ray powder Diffractometer equipped with a Cu-anode ([λ]=1.54 Angstrom), X-ray source operated at 45 kV, 40 mA. Two-theta calibration is performed using an NIST SRM 640c Si standard. The sample was analyzed using the following instrument parameters: measuring range=3-45° 20; step size=0.01°; and Time per step=23 sec.
In another embodiment, the present invention provides Sacubitril sodium and amorphous form of sacubitril-valsartan trisodium complex obtained by the above process, as analyzed using high performance liquid chromatography (“HPLC”) with the conditions are tabulated below:
The amorphous form of trisodium sacubitril valsartan complex is packed in LDPE bag under nitrogen atmosphere and placed in another LDPE bag, filled with nitrogen and kept silica gel packet between the bags, tied with strip seal. Kept the bag in triple laminated sunlight barrier bag and sealed with heat sealer. The stability of the samples was tested at 25±2° C./60±5% RH and 40±2° C./75±5% RH respectively.

[1] = 25 ± 2° C./60 ± 5% RH, 1st month
[2] = 25 ± 2° C./60 ± 5% RH, 3rd month
[3] = 25 ± 2° C./60 ± 5% RH, 6th month
[4] = 40 ± 2° C./75 ± 5% RH, 1st month
[5] = 40 ± 2° C./75 ± 5% RH, 3rd month
[6] = 40 ± 2° C./75 ± 5% RH, 6th month

## sacubitril valsartan trisodium complex
[1]
  HPLC purity (%): 99.95%
  PXRD: Amorphous
[2]
  HPLC purity (%): 99.94%
  PXRD: Amorphous
[3]
  HPLC purity (%): 99.93%
  PXRD: Amorphous
25 ± 2° C./60 ± 5% RH, Initial
  HPLC purity (%): 99.94%
  PXRD: Amorphous
[4]
  HPLC purity (%): 99.95%
  PXRD: Amorphous
[5]
  HPLC purity (%): 99.93%
  PXRD: Amorphous
[6]
  HPLC purity (%): 99.90%
  PXRD: Amorphous
40 ± 2° C./75 ± 5% RH, Initial
  HPLC purity (%): 99.94%
  PXRD: Amorphous
Packed in LDPE/triple laminated bags, up to 6 months at real and accelerated conditions, up to about 40° C., about 25% to about 75% RH
  solid form on storage: the amorphous character was retained
Stored at 25±2° C./60±5% RH for 6 months and at 40±2° C./75±5% RH for 6 months
  stability at real time and accelerated conditions: stable
